Data: patent publication US20060165732A1, “Fungal antigens and eosinophil activity” (priority 2002, published 2006)

What was measured:
Human eosinophils = experiment: Eosinophil degranulation measured by EDN release (RIA); assay type: cell-based
Procedure: The ability to induce eosinophilic degranulation was measured by EDN release. Human eosinophils were isolated from normal volunteers and volunteers reporting past allergies, hay fever, and/or asthma by Percoll density gradient centrifugation and magnetic cell sorting using MACS anti-CD16 microbeads as described by Hansel et al. (1991, J. Immunol. Methods, 145:105). Briefly, after peripheral blood was overlaid on an isotonic Percoll solution (1.084 g/ml; Sigma), the blood was centrifuged at 1000×g for 30 minutes at 4° C. Mononuclear cells at the interface were removed, and erythrocytes in the sediment were lysed by two cycles of hypotonic water lysis. Isolated granulocytes were washed twice with PIPES buffer (25 mM PIPES, 50 mM NaCl, 5 mM KCl, 25 mM NaOH, 5.4 mM glucose, pH 7.4) containing 1% bovine calf serum (Hyclone Laboratories; Logan, Utah). Cells were then incubated with an equal volume of anti-CD16-conjugated magnetic beads (Miltenyi Biotec, Auburn, Calif.) for 30 minutes at 4° C. with occasional gentle mixing. After 30 minutes of incubation on ice, cells were loaded onto a separation column positioned in the strong magnetic field of the MACS. Cells were eluted three times with 5 mL of PIPES buffer containing 1% bovine calf serum. The purity of eosinophils, as counted by Randolph's stain, was regularly >98%. Purified eosinophils were used immediately for experiments.
To monitor eosinophil degranulation, 200 μL of freshly isolated eosinophils were resuspended in HBSS with 25 mM HEPES and 0.01% gelatin at 5×10^5 cells/mL and incubated with the a particular fungal extract. […] To quantitate eosinophil degranulation, the concentration of one of the eosinophil granule proteins in the sample supernatants, EDN, was measured by specific RIA, as described previously (Horie & Kita, 1994, J. Immunol., 152:5457). […] Total cellular EDN was measured in parallel supernatants from cells lysed with Nonidet P-40 detergent (Sigma Chemical Co.). […]

[1] = test system: Human peripheral blood eosinophils; experiment: IL-8 production by eosinophils (ELISA); assay type: cell-based; conditions: 0.01 μg/mL, 24 hours
Procedure: Human peripheral blood eosinophils can produce and release proinflammtory cytokines including IL-8. Eosinophils were incubated with 50 μg/mL or 100 μg/mL of Alternaria, or with 0.01 μg/mL IL-5, and the amount of IL-8 was measured. Purified eosinophils (1 mL at 1×10^6 cells/mL) were cultured in RPMI 1640 medium supplemented with 10% BCS in the presence of Alternaria or IL-5 using 48-well tissue culture plates (Costar, Cambridge, Mass.). After incubating the eosinophils with Alternaria or IL-5 for 24 hours at 37° C. in an atmosphere of 5% CO2, cell free supernatants were collected and frozen at −20° C. The concentrations of IL-8 in the supernatants were measured using an ELISA kit (Quantikine IL-8 Immunoassay Kit, R&D Systems, Minneapolis, Minn.). The threshold sensitivity of the kit was 4 pg/mL.

eosinophils = experiment: Intracellular calcium [Ca^2+]i in eosinophils (indo-1, flow cytometer); assay type: cell-based, human; conditions: 100 μg/mL extract or 10 ng/mL IL-5, 37° C.
Procedure: Real time changes in cytosolic free Ca^2+ (intracellular Ca^2+ concentration ([Ca^2+]i)) were measured in a flow cytometer using the fluorescent calcium indicator indo-1 (Rabinovitch et al., 1986, J. Immunol., 137:952; Grynkiewicz et al., 1985, J. Biol Chem., 260:3440). Indicator was introduced into cells by incubating 1 mL of eosinophils at a concentration of 1 to 2×10^6 cells/mL with 3 μM indo-1/AM (Molecular Probes, Eugene, Oreg.) in phenol red-free RPMI 1640 medium supplemented with 10% alpha calf serum and 10 mM HEPES for 30 minutes at 37° C. After washing, cells were suspended in RPMI with 0.1% HSA and 10 mM HEPES at 1×10^6 cells/mL. To measure [Ca^2+]i, cells were stimulated with 100 μg/mL Alternaria culture extract or 10 ng/mL IL-5, and fluorescence was analyzed by a FACS analyzer equipped with an ion-argon laser (Becton Dickinson). [Ca^2+]i was monitored on the basis of the ratio of the fluorescence of the calcium-bound indo-1 emission (401 nm) and the free indo-1 emission (475 nm). In addition, the [Ca^2+] in the medium can be manipulated to determine the effect on [Ca^2+]i.

IL-5: cytokine used as reference stimulus of eosinophil degranulation
EDN release (Human eosinophils; 10 ng/mL): 52.1±6.5 ng EDN/10^6 cells | EDN release, eosinophils from allergy patients versus normal individuals (Human eosinophils; 100 μg/mL Alternaria culture extracts or 10 ng/mL IL-5): no difference | EDN release at 4° C. (Human eosinophils; incubation at 4° C. for 3 hours): abrogated EDN release | IL-8 production from eosinophils [1]: very little IL-8 | change in [Ca^2+]i (eosinophils): no elevation of [Ca^2+]i
